Laboratory results published in PubChem BioAssay AID330 (DTP/NCI, 2004).
Several values for one entry are separate records, joined by “and”; a condition that tells them apart may be missing. Equal values may be shown once. Toxic doses and inconclusive results are not listed. Square brackets hold non-standard residues; d marks the D form. Peptide text beside a SMILES is read from it. Ac5c = NC1(C(=O)O)CCCC1; Sar = CNCC(=O)O

Tested on: P388 leukemia ip, CD2F1 mice, survival T/C
Test: NCI In Vivo Anticancer Drug Screen. Data for tumor model P388 Leukemia (intraperitoneal) in CD2F1 (CDF1) mice
Conditions: endpoint: median survival time, higher = longer survival
In short: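 Mice carrying the transplanted tumor received test compound or vehicle. Survival was recorded in each group, and the value is the treated-group measurement divided by that of the vehicle-treated control group.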

[1] = dose: 50.0 mg/kg/injection, schedule: Q01DX005 (ip), vehicle: saline with Tween-80
[2] = dose: 100.0 mg/kg/injection, schedule: Q01DX005 (ip), vehicle: saline with Tween-80
[3] = dose: 200.0 mg/kg/injection, schedule: Q01DX005 (ip), vehicle: saline with Tween-80
[4] = dose: 25.0 mg/kg/injection, schedule: Q01DX009 (ip), vehicle: saline with Tween-80
[5] = dose: 50.0 mg/kg/injection, schedule: Q01DX009 (ip), vehicle: saline with Tween-80
[6] = dose: 50.0 mg/kg/injection, schedule: Q01DX005 (ip), vehicle: Klucel (hydroxypropylcellulose) (HPC)
[7] = dose: 100.0 mg/kg/injection, schedule: Q01DX005 (ip), vehicle: Klucel (hydroxypropylcellulose) (HPC)
[8] = dose: 200.0 mg/kg/injection, schedule: Q01DX005 (ip), vehicle: Klucel (hydroxypropylcellulose) (HPC)
[9] = dose: 50.0 mg/kg/injection, schedule: Q01DX009 (ip), vehicle: saline
[10] = dose: 100.0 mg/kg/injection, schedule: Q01DX009 (ip), vehicle: saline
[11] = dose: 200.0 mg/kg/injection, schedule: Q01DX009 (ip), vehicle: saline
[12] = dose: 60.0 mg/kg/injection, schedule: Q01DX005 (ip), vehicle: saline with Tween-80
[13] = dose: 120.0 mg/kg/injection, schedule: Q01DX005 (ip), vehicle: saline with Tween-80
[14] = dose: 240.0 mg/kg/injection, schedule: Q01DX005 (ip), vehicle: saline with Tween-80

For `O=C1C=C(Br)C(=O)C(Br)=C1`, the T/C (dose: 1.56 mg/kg/injection, schedule: Q01DX009 (ip), vehicle: distilled water + Tween-80) was 101 % of control, the T/C (dose: 3.13 mg/kg/injection, schedule: Q01DX009 (ip), vehicle: distilled water + Tween-80) was 95 % of control and the T/C (dose: 6.25 mg/kg/injection, schedule: Q01DX009 (ip), vehicle: distilled water + Tween-80) was 100 % of control.

`CCCCCCCCCCCCCCCCCC(=O)NC(CC(=O)OCCCCCC)c1ccc(N(CCCl)CCCl)cc1` (stereo not given) was tested, and the T/C (dose: 4.3 mg/kg/injection, schedule: Q01DX009 (ip), vehicle: saline) was 163 % of control, the T/C (dose: 8.6 mg/kg/injection, schedule: Q01DX009 (ip), vehicle: saline) was 186 % of control and the T/C (dose: 8.6 mg/kg/injection, schedule: Q03HX008 (ip), vehicle: saline) was 150 % of control. The T/C (dose: 17.2 mg/kg/injection, schedule: Q01DX009 (ip), vehicle: saline) was 213 % of control, the T/C (dose: 17.2 mg/kg/injection, schedule: Q03HX008 (ip), vehicle: saline) was 165 % of control and the T/C (dose: 34.4 mg/kg/injection, schedule: Q03HX008 (ip), vehicle: saline) was 200 % of control. For the same compound, the T/C (dose: 34.5 mg/kg/injection, schedule: Q03HX008 (ip), vehicle: saline) was 250 % of control, the T/C (dose: 68.8 mg/kg/injection, schedule: Q03HX008 (ip), vehicle: saline) was 315 % of control and the T/C (dose: 138.0 mg/kg/injection, schedule: Q03HX008 (ip), vehicle: saline) was 168 % of control. For the same compound, the T/C (dose: 275.0 mg/kg/injection, schedule: Q03HX008 (ip), vehicle: saline) was 163 % of control.

For `CC(C)(C)OC(=O)NNCC(=O)OCc1ccccc1`, the T/C (dose: 12.5 mg/kg/injection, schedule: Q01DX009 (ip), vehicle: other) was 96 % of control, the T/C (dose: 25.0 mg/kg/injection, schedule: Q01DX009 (ip), vehicle: other) was 103 % of control and the T/C (dose: 50.0 mg/kg/injection, schedule: Q01DX009 (ip), vehicle: other) was 111 % of control. The T/C (dose: 100.0 mg/kg/injection, schedule: Q01DX009 (ip), vehicle: other) was 101 % of control and the T/C (dose: 200.0 mg/kg/injection, schedule: Q01DX009 (ip), vehicle: other) was 99 % of control.

`NC(=S)n1nc(-c2ccccc2)c(N=Nc2ccc(Cl)cc2Cl)c1-c1ccccc1` was tested, and the T/C [1] was 94 % of control, the T/C [2] was 88 % of control and the T/C [3] was 96 % of control.

For `N=C(N)Sc1cc(O)c(O)c2ccccc12`, the T/C (dose: 6.25 mg/kg/injection, schedule: Q01DX005 (ip), vehicle: saline) was 104 % of control and the T/C (dose: 12.5 mg/kg/injection, schedule: Q01DX005 (ip), vehicle: saline) was 109 % of control.

With `c1ccc2c(c1)[nH]c1ccncc12` the T/C [4] was 95 % of control and the T/C [5] was 95 % of control.

For `O=C(O)CCSCCCCCCCCCCCCSCCC(=O)O`, the T/C [6] was 95 % of control, the T/C [7] was 89 % of control and the T/C [8] was 87 % of control.

For `CSc1nc2c3ccccc3ccn2c(=N)c1C#N`, the T/C (dose: 25.0 mg/kg/injection, schedule: Q04DX002 (ip), vehicle: saline) was 104 % of control and the T/C (dose: 50.0 mg/kg/injection, schedule: Q04DX002 (ip), vehicle: saline) was 109 % of control.

`CCOC(=O)NC1CCc2ccccc2C1` (stereo not given) was tested, and the T/C (dose: 100.0 mg/kg/injection, schedule: Q04DX003 (ip), vehicle: Klucel (hydroxypropylcellulose) (HPC)) was 98 % of control, the T/C (dose: 200.0 mg/kg/injection, schedule: Q04DX003 (ip), vehicle: Klucel (hydroxypropylcellulose) (HPC)) was 108 % of control and the T/C (dose: 400.0 mg/kg/injection, schedule: Q04DX003 (ip), vehicle: Klucel (hydroxypropylcellulose) (HPC)) was 95 % of control.

With `Cc1cc(C)nc(Nc2nnc(Nc3cc(C)cc(C)n3)c3ccccc23)c1` the T/C [1] was 96 % of control, the T/C [2] was 93 % of control and the T/C [3] was 87 % of control.

With `CC(=O)Oc1c(C)[nH]ccc1=O` the T/C (dose: 25.0 mg/kg/injection, schedule: Q01DX009 (ip), vehicle: saline) was 103 % of control and 104 % of control, the T/C [9] was 107 % of control and 112 % of control and 116 % of control and the T/C [10] was 116 % of control. The T/C [11] was 154 % of control, the T/C (dose: 400.0 mg/kg/injection, schedule: Q01DX009 (ip), vehicle: saline) was 152 % of control and 161 % of control and 179 % of control and the T/C (dose: 800.0 mg/kg/injection, schedule: Q01DX009 (ip), vehicle: saline) was 180 % of control.

`CCC(C)C(NC(=O)C(C)NC(=O)OCc1ccccc1)C(=O)O` (stereo not given) was tested, and the T/C [1] was 101 % of control, the T/C [2] was 101 % of control and the T/C [3] was 100 % of control.

`CCOC(=O)C1C[S][Sn]2([NH]1)[NH]C(C(=O)OCC)C[S]2` (stereo not given) was tested, and the T/C [6] was 99 % of control, the T/C [7] was 106 % of control and the T/C [8] was 101 % of control.

With `CC(C)=COS(=O)(=O)C(F)(F)F` the T/C (dose: 50.0 mg/kg/injection, schedule: Q01DX009 (ip), vehicle: olive oil, sesame oil, peanut oil) was 99 % of control, the T/C (dose: 100.0 mg/kg/injection, schedule: Q01DX009 (ip), vehicle: olive oil, sesame oil, peanut oil) was 96 % of control and the T/C (dose: 200.0 mg/kg/injection, schedule: Q01DX009 (ip), vehicle: olive oil, sesame oil, peanut oil) was 90 % of control.

With `CNCC(=O)NC1(C(=O)O)CCCC1` (H-[Sar]-[Ac5c]-OH) the T/C [9] was 100 % of control, the T/C [10] was 94 % of control and the T/C [11] was 109 % of control.

With `CCOc1ccc(N2CC(=O)N3CCCN3C(=O)C2)cc1` the T/C (dose: 6.25 mg/kg/injection, schedule: Q01DX005 (ip), vehicle: saline with Tween-80) was 96 % of control, the T/C (dose: 12.5 mg/kg/injection, schedule: Q01DX005 (ip), vehicle: saline with Tween-80) was 102 % of control and the T/C (dose: 25.0 mg/kg/injection, schedule: Q01DX005 (ip), vehicle: saline with Tween-80) was 100 % of control.

With `O=C1CC(c2ccc(Cl)cc2Cl)Oc2ccc(Cl)cc21` (stereo not given) the T/C (dose: 6.25 mg/kg/injection, schedule: Q01DX009 (ip), vehicle: saline with Tween-80) was 95 % of control, the T/C (dose: 12.5 mg/kg/injection, schedule: Q01DX009 (ip), vehicle: saline with Tween-80) was 96 % of control and the T/C [4] was 95 % of control. For the same compound, the T/C [5] was 89 % of control, the T/C (dose: 100.0 mg/kg/injection, schedule: Q01DX009 (ip), vehicle: saline with Tween-80) was 87 % of control and 90 % of control and the T/C (dose: 200.0 mg/kg/injection, schedule: Q01DX009 (ip), vehicle: saline with Tween-80) was 90 % of control. The T/C (dose: 400.0 mg/kg/injection, schedule: Q01DX009 (ip), vehicle: saline with Tween-80) was 96 % of control.

`O=C1NC2Cc3ccccc3C(C2)O1` (stereo not given) was tested, and the T/C [12] was 101 % of control, the T/C [13] was 100 % of control and the T/C [14] was 93 % of control.

With `COc1ccc(-c2nc(N)nc(-c3nc(N)nc(-c4ccc(OC)cc4)c3-c3ccc(OC)cc3)c2-c2ccc(OC)cc2)cc1` the T/C [12] was 96 % of control, the T/C [13] was 96 % of control and the T/C [14] was 99 % of control.

With `CC(C)CCCCCCCCCCCCC(=O)NCC(=O)NC1C(CO)OC(Nc2ncnc3nc[nH]c23)C(O)C1O` (stereo not given) the T/C (dose: 0.13 mg/kg/injection, schedule: Q01DX009 (ip), vehicle: other) was 114 % of control, the T/C (dose: 0.5 mg/kg/injection, schedule: Q01DX009 (ip), vehicle: other) was 161 % of control and the T/C (dose: 1.0 mg/kg/injection, schedule: Q01DX009 (ip), vehicle: other) was 105 % of control. The T/C (dose: 2.0 mg/kg/injection, schedule: Q01DX009 (ip), vehicle: other) was 89 % of control.

For `O=C(NNC(=O)C(Cl)Cl)c1ccccn1`, the T/C (dose: 50.0 mg/kg/injection, schedule: Q01DX009 (ip), vehicle: Klucel (hydroxypropylcellulose) (HPC)) was 99 % of control, the T/C (dose: 100.0 mg/kg/injection, schedule: Q01DX009 (ip), vehicle: Klucel (hydroxypropylcellulose) (HPC)) was 101 % of control and the T/C (dose: 200.0 mg/kg/injection, schedule: Q01DX009 (ip), vehicle: Klucel (hydroxypropylcellulose) (HPC)) was 109 % of control.

With `C1SSCC2=C1CSSC2` the T/C [12] was 100 % of control, the T/C [13] was 100 % of control and the T/C [14] was 107 % of control.

For `CN1C2CCC1CC(O)(c1ccc(Cl)cc1)C2` (stereo not given), the T/C (dose: 12.5 mg/kg/injection, schedule: Q01DX005 (ip), vehicle: Klucel (hydroxypropylcellulose) (HPC)) was 100 % of control, the T/C (dose: 25.0 mg/kg/injection, schedule: Q01DX005 (ip), vehicle: Klucel (hydroxypropylcellulose) (HPC)) was 100 % of control and the T/C [6] was 107 % of control. For the same compound, the T/C [7] was 109 % of control.

For `NC(=O)c1[nH]ccc1NCc1ccccc1`, the T/C [1] was 97 % of control, the T/C [2] was 88 % of control and the T/C [3] was 97 % of control.

In the case of `COC(=O)c1cn(C)c(-c2ccccc2)c1C(=O)OC`, the T/C [6] is reported as 100 % of control, the T/C [7] is reported as 100 % of control and the T/C [8] is reported as 97 % of control.
